Laboratory results reported in the supplement of paper PMC12282887.

Tests used:
Assay in all cases: fitness (OD AUC treated / untreated) (fraction); higher = more growth
[1] = test system: E. coli BW25113 Drob + rob
Procedure: (§1)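 MIC curves of ciprofloxacin or amoxicillin, with or without 55.5 µg/ml caffeine, against E. coli BW25113 wild type, deletion mutants (ΔmicF, ΔompF, Δrob) and complemented strains. Assays ran in LB at 37°C in 96/384-well plates. Fitness is the OD600 AUC over 8 h divided by the no-drug control; 3-4 biological replicates.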

E. coli BW25113 Drob = test system: E. coli BW25113 Drob
Procedure: as §1

E. coli BW25113 WT = test system: E. coli BW25113 WT
Procedure: as §1

[2] = test system: E. coli BW25113 DmicF + micF
Procedure: as §1

E. coli BW25113 DmicF = test system: E. coli BW25113 DmicF
Procedure: as §1

[3] = test system: E. coli BW25113 DompF + ompF
Procedure: as §1

CC1(C)S[C@@H]2[C@H](NC(=O)[C@H](N)c3ccc(O)cc3)C(=O)N2[C@H]1C(=O)O [Amoxicillin]
fitness
Conditions	E. coli BW25113 Drob	E. coli BW25113 WT	[1]
antibiotic concentration 0.72727 µg/ml, caffeine concentration 0 µg/ml	1.06	1.02	1.04
antibiotic concentration 0.72727 µg/ml, caffeine concentration 55.4857 µg/ml	0.954	0.986	0.988
antibiotic concentration 1.45455 µg/ml, caffeine concentration 0 µg/ml	1.067	1.03	1.098
antibiotic concentration 1.45455 µg/ml, caffeine concentration 55.4857 µg/ml	0.96	0.995	1.013
antibiotic concentration 2.18182 µg/ml, caffeine concentration 0 µg/ml	0.956	1.01	1.06
antibiotic concentration 2.18182 µg/ml, caffeine concentration 55.4857 µg/ml	0.8209	1.02	1
antibiotic concentration 2.90909 µg/ml, caffeine concentration 0 µg/ml	0.233	0.791	0.381
antibiotic concentration 2.90909 µg/ml, caffeine concentration 55.4857 µg/ml	0.207	1.07	0.976
antibiotic concentration 3.63636 µg/ml, caffeine concentration 0 µg/ml	0.107	0.246	0.156
antibiotic concentration 3.63636 µg/ml, caffeine concentration 55.4857 µg/ml	0.0967	0.971	0.653
antibiotic concentration 4.36364 µg/ml, caffeine concentration 0 µg/ml	0.0398	0.114	0.0865
antibiotic concentration 4.36364 µg/ml, caffeine concentration 55.4857 µg/ml	0.0126	0.637	0.219
antibiotic concentration 5.09091 µg/ml, caffeine concentration 0 µg/ml	4.88e-05	0.0723	0.0167
antibiotic concentration 5.09091 µg/ml, caffeine concentration 55.4857 µg/ml	0.000488	0.251	0.113
antibiotic concentration 5.81818 µg/ml, caffeine concentration 0 µg/ml	0	0.0283	0
antibiotic concentration 5.81818 µg/ml, caffeine concentration 55.4857 µg/ml	0	0.133	0.0601
antibiotic concentration 6.54545 µg/ml, caffeine concentration 0 µg/ml	0	0	0
antibiotic concentration 6.54545 µg/ml, caffeine concentration 55.4857 µg/ml	0	0.0838	0.00196
antibiotic concentration 7.27273 µg/ml, caffeine concentration 0 µg/ml	0	0	0
antibiotic concentration 7.27273 µg/ml, caffeine concentration 55.4857 µg/ml	0.000488	0.0273	0
antibiotic concentration 8 µg/ml, caffeine concentration 0 µg/ml	0	0	0
antibiotic concentration 8 µg/ml, caffeine concentration 55.4857 µg/ml	0	0.00395	0.000108

O=C(O)c1cn(C2CC2)c2cc(N3CCNCC3)c(F)cc2c1=O [Ciprofloxacin]
fitness
Conditions	E. coli BW25113 DmicF	E. coli BW25113 Drob	E. coli BW25113 WT	[2]	[3]
antibiotic concentration 0.00227 µg/ml, caffeine concentration 0 µg/ml	0.916	1.07	1.07	1.05	–
antibiotic concentration 0.00227 µg/ml, caffeine concentration 55.4857 µg/ml	0.927	0.883	0.995	–	–
antibiotic concentration 0.00455 µg/ml, caffeine concentration 0 µg/ml	0.793	0.845	0.987	1.01	–
antibiotic concentration 0.00455 µg/ml, caffeine concentration 55.4857 µg/ml	0.867	0.887	0.986	–	–
antibiotic concentration 0.00682 µg/ml, caffeine concentration 0 µg/ml	0.625	0.754	0.99	0.985	–
antibiotic concentration 0.00682 µg/ml, caffeine concentration 55.4857 µg/ml	0.684	0.733	1	0.99	–
antibiotic concentration 0.00909 µg/ml, caffeine concentration 0 µg/ml	0.435	0.641	0.891	0.876	–
antibiotic concentration 0.00909 µg/ml, caffeine concentration 55.4857 µg/ml	–	0.619	0.953	0.941	–
antibiotic concentration 0.01136 µg/ml, caffeine concentration 0 µg/ml	0.232	0.42	0.766	0.679	–
antibiotic concentration 0.01136 µg/ml, caffeine concentration 55.4857 µg/ml	–	0.383	0.938	0.798	–
antibiotic concentration 0.01364 µg/ml, caffeine concentration 0 µg/ml	0.153	0.266	0.58	0.381	0.748
antibiotic concentration 0.01364 µg/ml, caffeine concentration 55.4857 µg/ml	–	0.199	0.82	0.571	0.89
antibiotic concentration 0.01591 µg/ml, caffeine concentration 0 µg/ml	0.0556	0.143	0.448	0.154	–
antibiotic concentration 0.01591 µg/ml, caffeine concentration 55.4857 µg/ml	–	0.114	0.728	0.329	–
antibiotic concentration 0.01818 µg/ml, caffeine concentration 0 µg/ml	0.017	0.0644	0.304	0.0704	–
antibiotic concentration 0.01818 µg/ml, caffeine concentration 55.4857 µg/ml	–	0.0408	0.607	0.207	–
antibiotic concentration 0.02045 µg/ml, caffeine concentration 0 µg/ml	0.0088	0.0847	0.192	0.0466	0.541
antibiotic concentration 0.02045 µg/ml, caffeine concentration 55.4857 µg/ml	–	0.0665	0.482	0.119	0.771
antibiotic concentration 0.02273 µg/ml, caffeine concentration 0 µg/ml	0.00491	0.0851	0.101	0.045	–
antibiotic concentration 0.02273 µg/ml, caffeine concentration 55.4857 µg/ml	0.00595	0.0576	0.374	0.0506	–
antibiotic concentration 0.025 µg/ml, caffeine concentration 0 µg/ml	0	0.0782	0.0921	0.0379	–
antibiotic concentration 0.025 µg/ml, caffeine concentration 55.4857 µg/ml	0	0.0414	0.276	0.0446	–
antibiotic concentration 0.02727 µg/ml, caffeine concentration 0 µg/ml	–	–	–	–	0.238
antibiotic concentration 0.02727 µg/ml, caffeine concentration 55.4857 µg/ml	–	–	–	–	0.558
antibiotic concentration 0.03409 µg/ml, caffeine concentration 0 µg/ml	–	–	–	–	0.0975
antibiotic concentration 0.03409 µg/ml, caffeine concentration 55.4857 µg/ml	–	–	–	–	0.359
antibiotic concentration 0.04091 µg/ml, caffeine concentration 0 µg/ml	–	–	–	–	0.039
antibiotic concentration 0.04091 µg/ml, caffeine concentration 55.4857 µg/ml	–	–	–	–	0.194
antibiotic concentration 0.04773 µg/ml, caffeine concentration 0 µg/ml	–	–	–	–	0.032
antibiotic concentration 0.04773 µg/ml, caffeine concentration 55.4857 µg/ml	–	–	–	–	0.102
antibiotic concentration 0.05455 µg/ml, caffeine concentration 0 µg/ml	–	–	–	–	0.0267
antibiotic concentration 0.05455 µg/ml, caffeine concentration 55.4857 µg/ml	–	–	–	–	0.0511
antibiotic concentration 0.06136 µg/ml, caffeine concentration 0 µg/ml	–	–	–	–	0.0262
antibiotic concentration 0.06136 µg/ml, caffeine concentration 55.4857 µg/ml	–	–	–	–	0.0404
antibiotic concentration 0.06818 µg/ml, caffeine concentration 0 µg/ml	–	–	–	–	0.0324
antibiotic concentration 0.06818 µg/ml, caffeine concentration 55.4857 µg/ml	–	–	–	–	0.0403
antibiotic concentration 0.075 µg/ml, caffeine concentration 0 µg/ml	–	–	–	–	0.0312
antibiotic concentration 0.075 µg/ml, caffeine concentration 55.4857 µg/ml	–	–	–	–	0.0317
